Biological target: T1, AR (Homo sapiens, UniProt P10275)
T1 construct: endogenous in cells; host or cells: VCaP cells
T1 sequence (P10275 1-920): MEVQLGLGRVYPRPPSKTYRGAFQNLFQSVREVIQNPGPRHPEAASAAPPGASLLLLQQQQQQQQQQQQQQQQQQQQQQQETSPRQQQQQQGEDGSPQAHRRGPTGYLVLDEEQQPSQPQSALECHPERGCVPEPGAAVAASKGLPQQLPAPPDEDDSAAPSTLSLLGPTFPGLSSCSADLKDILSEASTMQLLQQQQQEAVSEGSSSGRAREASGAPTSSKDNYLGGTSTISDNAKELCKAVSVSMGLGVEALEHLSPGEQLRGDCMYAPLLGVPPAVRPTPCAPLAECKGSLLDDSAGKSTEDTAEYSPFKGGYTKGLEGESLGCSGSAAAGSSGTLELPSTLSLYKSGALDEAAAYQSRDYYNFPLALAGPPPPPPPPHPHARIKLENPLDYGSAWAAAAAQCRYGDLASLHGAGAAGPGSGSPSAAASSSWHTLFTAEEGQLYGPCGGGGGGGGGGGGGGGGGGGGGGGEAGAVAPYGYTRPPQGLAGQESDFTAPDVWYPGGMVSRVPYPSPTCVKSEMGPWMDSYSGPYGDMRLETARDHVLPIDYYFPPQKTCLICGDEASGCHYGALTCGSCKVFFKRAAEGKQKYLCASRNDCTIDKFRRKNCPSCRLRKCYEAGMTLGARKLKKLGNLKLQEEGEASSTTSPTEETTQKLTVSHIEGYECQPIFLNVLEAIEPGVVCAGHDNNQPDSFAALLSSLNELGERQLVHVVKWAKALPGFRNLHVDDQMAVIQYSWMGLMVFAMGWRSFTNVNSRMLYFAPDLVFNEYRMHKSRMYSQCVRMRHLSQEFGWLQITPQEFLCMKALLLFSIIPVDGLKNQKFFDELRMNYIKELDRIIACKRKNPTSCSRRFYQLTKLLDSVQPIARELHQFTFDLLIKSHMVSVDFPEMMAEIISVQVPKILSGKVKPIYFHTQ
Assay: VCAP AR Degradation Assay
Format: cell-based
Settings: for Y (AR degradation efficiency, % of DMSO control): class symbols *; for DC50: class symbols A-C, read-out: DC50
Procedure, shortened: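 Compounds were plated as 10-point 1:3 series reaching 5 μM final, then VCaP cells were seeded onto them and incubated 24 h at 37 °C. Cells were lysed cold, and total AR was measured by sandwich ELISA relative to 0.1% DMSO wells.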

Row | SMILES | Y (AR degradation efficiency, % of DMSO control) | DC50
1 | C[C@@H]1CN(CCOc2ccc(N3C(=S)N(c4cnc(C#N)c(C(F)(F)F)c4)C(=O)C34CCC4)cc2C2CC2)C[C@H](C)N1CC(=O)Nc1cc(F)cc(NC2CCC(=O)NC2=O)c1 (stereo partly drawn) [Example 218, 2-((2S,6R)-4-(2-(4-(7-(6-cyano-5-(trifluoromethyl)pyridin-3-yl)-8-oxo-6-thioxo-5,7-diazaspiro[3.4]octan-5-yl)-2-cyclopropylphenoxy)ethyl)-2,6-dimethylpiperazin-1-yl)-N-(3-(2,6-dioxopiperidin-3-ylamino)-5-fluorophenyl)acetamide] | * (0<Y<=25%) | < 100 nM
2 | C[C@@H]1CN(CCOc2ccc(N3C(=S)N(c4ccc(C#N)c(Cl)c4)C(=O)C3(C)C)cc2C2CC2)C[C@H](C)N1CC(=O)Nc1cc(C#N)cc(NC2CCC(=O)NC2=O)c1 (stereo partly drawn) [Example 219, 2-((2S,6R)-4-(2-(4-(3-(3-chloro-4-cyanophenyl)-5,5-dimethyl-4-oxo-2-thioxoimidazolidin-1-yl)-2-cyclopropylphenoxy)ethyl)-2,6-dimethylpiperazin-1-yl)-N-(3-cyano-5-(2,6-dioxopiperidin-3-ylamino)phenyl)acetamide] | ** (25%<Y<=35%) | < 100 nM
3 | C[C@@H]1CN(CCOc2ccc(N3C(=S)N(c4ccc(C#N)c(Cl)c4)C(=O)C3(C)C)cc2C2CC2)C[C@H](C)N1CC(=O)Nc1cc(Cl)cc(NC2CCC(=O)NC2=O)c1 (stereo partly drawn) [Example 220, 2-((2S,6R)-4-(2-(4-(3-(3-chloro-4-cyanophenyl)-5,5-dimethyl-4-oxo-2-thioxoimidazolidin-1-yl)-2-cyclopropylphenoxy)ethyl)-2,6-dimethylpiperazin-1-yl)-N-(3-chloro-5-(2,6-dioxopiperidin-3-ylamino)phenyl)acetamide] | ** (25%<Y<=35%) | < 100 nM
4 | C[C@@H]1CN(CCOc2ccc(N3C(=S)N(c4ccc(C#N)c(Cl)c4)C(=O)C3(C)C)cc2C2CC2)C[C@H](C)N1CC(=O)Nc1cc(NC2CCC(=O)NC2=O)ccc1F (stereo partly drawn) [Example 221, 2-((2S,6R)-4-(2-(4-(3-(3-chloro-4-cyanophenyl)-5,5-dimethyl-4-oxo-2-thioxoimidazolidin-1-yl)-2-cyclopropylphenoxy)ethyl)-2,6-dimethylpiperazin-1-yl)-N-(5-(2,6-dioxopiperidin-3-ylamino)-2-fluorophenyl)acetamide] | ** (25%<Y<=35%) | < 100 nM
5 | CC(C)c1cc(N2C(=S)N(c3ccc(C#N)c(Cl)c3)C(=O)C2(C)C)ccc1OCCN1C[C@@H](C)N(CC(=O)Nc2cc(NC3CCC(=O)NC3=O)ccc2F)[C@@H](C)C1 (stereo partly drawn) [Example 222, 2-((2S,6R)-4-(2-(4-(3-(3-chloro-4-cyanophenyl)-5,5-dimethyl-4-oxo-2-thioxoimidazolidin-1-yl)-2-isopropylphenoxy)ethyl)-2,6-dimethylpiperazin-1-yl)-N-(5-(2,6-dioxopiperidin-3-ylamino)-2-fluorophenyl)acetamide] | * (0<Y<=25%) | 100 to 500 nM
6 | CC(C)c1cc(N2C(=S)N(c3ccc(C#N)c(Cl)c3)C(=O)C2(C)C)ccc1OCCN1C[C@@H](C)N(CC(=O)Nc2cc(Cl)cc(NC3CCC(=O)NC3=O)c2)[C@@H](C)C1 (stereo partly drawn) [Example 223, 2-((2S,6R)-4-(2-(4-(3-(3-chloro-4-cyanophenyl)-5,5-dimethyl-4-oxo-2-thioxoimidazolidin-1-yl)-2-isopropylphenoxy)ethyl)-2,6-dimethylpiperazin-1-yl)-N-(3-chloro-5-(2,6-dioxopiperidin-3-ylamino)phenyl)acetamide] | ** (25%<Y<=35%) | 100 to 500 nM
7 | CC(C)c1cc(N2C(=S)N(c3ccc(C#N)c(C(F)(F)F)c3)C(=O)C2(C)C)cnc1OCCN1C[C@@H](C)N(CC(=O)Nc2cccc(NC3CCC(=O)NC3=O)c2)[C@@H](C)C1 (stereo partly drawn) [Example 224, 2-((2R,6S)-4-(2-(5-(3-(4-cyano-3-(trifluoromethyl)phenyl)-5,5-dimethyl-4-oxo-2-thioxoimidazolidin-1-yl)-3-isopropylpyridin-2-yloxy)ethyl)-2,6-dimethylpiperazin-1-yl)-N-(3-(2,6-dioxopiperidin-3-ylamino)phenyl)acetamide] | ** (25%<Y<=35%) | 100 to 500 nM
8 | C[C@@H]1CN(CCOc2ccc(N3C(=S)N(c4ccc(C#N)c(C(F)(F)F)c4)C(=O)C34CCC4)cc2C2CC2)C[C@H](C)N1CC(=O)Nc1cccc(NC2CCC(=O)NC2=O)c1 (stereo partly drawn) [Example 225, 2-((2R,6S)-4-(2-(4-(7-(4-cyano-3-(trifluoromethyl)phenyl)-8-oxo-6-thioxo-5,7-diazaspiro[3.4]octan-5-yl)-2-cyclopropylphenoxy)ethyl)-2,6-dimethylpiperazin-1-yl)-N-(3-(2,6-dioxopiperidin-3-ylamino)phenyl)acetamide] | * (0<Y<=25%) | < 100 nM
9 | C[C@@H]1CN(CCOc2ccc(N3C(=S)N(c4ccc(C#N)c(Cl)c4)C(=O)C3(C)C)cc2C2CC2)C[C@H](C)N1CC(=O)Nc1cc(F)cc(NC2CCC(=O)NC2=O)c1 (stereo partly drawn) [Example 226, 2-((2S,6R)-4-(2-(4-(3-(3-chloro-4-cyanophenyl)-5,5-dimethyl-4-oxo-2-thioxoimidazolidin-1-yl)-2-cyclopropylphenoxy)ethyl)-2,6-dimethylpiperazin-1-yl)-N-(3-(2,6-dioxopiperidin-3-ylamino)-5-fluorophenyl)acetamide] | * (0<Y<=25%) | < 100 nM
10 | CC(C)c1cc(N2C(=S)N(c3ccc(C#N)c(C(F)(F)F)c3)C(=O)C23CCC3)cnc1OCCN1C[C@@H](C)N(CC(=O)Nc2cccc(NC3CCC(=O)NC3=O)c2)[C@@H](C)C1 (stereo partly drawn) [Example 227, 2-((2S,6R)-4-(2-(5-(7-(4-cyano-3-(trifluoromethyl)phenyl)-8-oxo-6-thioxo-5,7-diazaspiro[3.4]octan-5-yl)-3-isopropylpyridin-2-yloxy)ethyl)-2,6-dimethylpiperazin-1-yl)-N-(3-(2,6-dioxopiperidin-3-ylamino)phenyl)acetamide] | * (0<Y<=25%) | < 100 nM
11 | C[C@@H]1CN(CCOc2ncc(N3C(=S)N(c4ccc(C#N)c(C(F)(F)F)c4)C(=O)C3(C)C)cc2C2CC2)C[C@H](C)N1CC(=O)Nc1cccc(NC2CCC(=O)NC2=O)c1 (stereo partly drawn) [Example 228, 2-((2S,6R)-4-(2-(5-(3-(4-cyano-3-(trifluoromethyl)phenyl)-5,5-dimethyl-4-oxo-2-thioxoimidazolidin-1-yl)-3-cyclopropylpyridin-2-yloxy)ethyl)-2,6-dimethylpiperazin-1-yl)-N-(3-(2,6-dioxopiperidin-3-ylamino)phenyl)acetamide] | * (0<Y<=25%) | < 100 nM
12 | C[C@@H]1CN(CCOc2ncc(N3C(=S)N(c4ccc(C#N)c(C(F)(F)F)c4)C(=O)C34CCC4)cc2C2CC2)C[C@H](C)N1CC(=O)Nc1cccc(NC2CCC(=O)NC2=O)c1 (stereo partly drawn) [Example 229, 2-((2S,6R)-4-(2-(5-(7-(4-cyano-3-(trifluoromethyl)phenyl)-8-oxo-6-thioxo-5,7-diazaspiro[3.4]octan-5-yl)-3-cyclopropylpyridin-2-yloxy)ethyl)-2,6-dimethylpiperazin-1-yl)-N-(3-(2,6-dioxopiperidin-3-ylamino)phenyl)acetamide] | * (0<Y<=25%) | < 100 nM
13 | CC(C)c1cc(N2C(=S)N(c3ccc(C#N)c(C(F)(F)F)c3)C(=O)C2(C)C)cnc1OCCN1C[C@@H](C)N(CC(=O)Nc2cccc(NC3CCC(=O)NC3=O)c2)C[C@H]1C (stereo partly drawn) [Example 230, 2-((2R,5R)-4-(2-(5-(3-(4-cyano-3-(trifluoromethyl)phenyl)-5,5-dimethyl-4-oxo-2-thioxoimidazolidin-1-yl)-3-isopropylpyridin-2-yloxy)ethyl)-2,5-dimethylpiperazin-1-yl)-N-(3-(2,6-dioxopiperidin-3-ylamino)phenyl)acetamide] | *** (35%<Y<50%) | 500 to 1000 nM
14 | CC(C)c1cc(N2C(=S)N(c3ccc(C#N)c(C(F)(F)F)c3)C(=O)C23CCC3)cnc1OCCN1C[C@@H](C)N(CC(=O)Nc2cc(C#N)cc(NC3CCC(=O)NC3=O)c2)C[C@H]1C (stereo partly drawn) [Example 231, 2-((2R,5R)-4-(2-(5-(7-(4-cyano-3-(trifluoromethyl)phenyl)-8-oxo-6-thioxo-5,7-diazaspiro[3.4]octan-5-yl)-3-isopropylpyridin-2-yloxy)ethyl)-2,5-dimethylpiperazin-1-yl)-N-(3-cyano-5-(2,6-dioxopiperidin-3-ylamino)phenyl)acetamide] | * (0<Y<=25%) | 100 to 500 nM

Source: patent publication US12404241B2 (Celgene Corporation, priority 2018, dated 2025)
